Data from the NIST ThermoML archive (doi:10.1021/acs.jced.6b00261).

Settings: Liquid, Frequency=8 MHz, Pulse-echo method

C[Si]1(C)O[Si](C)(C)O[Si](C)(C)O[Si](C)(C)O1 [octamethylcyclotetrasiloxane]
Settings	speed of sound [m/s]
299.67 K, 14920 kPa	1006.8
299.79 K, 130 kPa	911.09
299.8 K, 520 kPa	913.77
299.81 K, 980 kPa	916.96
299.81 K, 1500 kPa	920.51
299.82 K, 1980 kPa	923.9
299.83 K, 3440 kPa	933.79
299.85 K, 6010 kPa	950.89
300.15 K, 10240 kPa	978.63
349.96 K, 26230 kPa	939.02
349.98 K, 14970 kPa	866.97
350 K, 10200 kPa	832.31
350.03 K, 6210 kPa	800.86
350.04 K, 1960 kPa	764.8
350.04 K, 3530 kPa	778.49
350.05 K, 960 kPa	755.62
350.05 K, 1480 kPa	760.43
350.06 K, 530 kPa	751.64
350.07 K, 120 kPa	747.75
350.35 K, 22660 kPa	915.86
399.62 K, 19680 kPa	784.97
399.63 K, 15100 kPa	749.46
399.64 K, 6070 kPa	667.98
399.64 K, 10120 kPa	706.83
399.68 K, 3610 kPa	641.86
399.69 K, 19290 kPa	782.02
399.7 K, 510 kPa	605.91
399.7 K, 1030 kPa	612.25
399.7 K, 1460 kPa	617.43
399.7 K, 2040 kPa	624.18
399.71 K, 120 kPa	600.99
449.63 K, 960 kPa	475.36
449.64 K, 130 kPa	461.18
449.64 K, 500 kPa	467.67
449.69 K, 1960 kPa	491.86
449.7 K, 1490 kPa	484.22
449.77 K, 3600 kPa	516.36
449.87 K, 5900 kPa	547.45
450 K, 10040 kPa	596.17
450.19 K, 15080 kPa	646.97
450.23 K, 16420 kPa	659.13
499.88 K, 3480 kPa	398.42
499.88 K, 6030 kPa	444.06
499.91 K, 2030 kPa	367.4
499.92 K, 330 kPa	321.35
499.92 K, 1490 kPa	354.75
499.93 K, 11150 kPa	515.95
499.94 K, 520 kPa	329.04
500 K, 10650 kPa	509.56
549.54 K, 5510 kPa	338.9
549.55 K, 5070 kPa	329.01
549.56 K, 4550 kPa	317.1
549.61 K, 3880 kPa	300.55
549.97 K, 6640 kPa	364.29
